The source made the active and inactive calls. No cut-off for these calls is given here.
Key:
Mus musculus [1] = experiment: Antiplatelet activity against ADP-induced C57BL/6J mouse platelet aggregation assessed as reduction in integrin alphaIIbbeta3 surface level at 20 mg/kg, po measured after 2 weeks by flow cytometry analysis; format: functional, organism-based
[2] = Antiplatelet activity against ADP-induced C57BL/6J mouse platelet aggregation assessed as maximal aggregration rate at 10 uM preincubated for 10 mins followed by ADP addition relative to control; format: functional
Mus musculus [3] = experiment: Antiplatelet activity against ADP-induced C57BL/6J mouse platelet aggregation assessed as inhibition of platelet aggregation at 20 mg/kg, po measured after 2 weeks; format: functional, organism-based
Mus musculus [4] = experiment: Antithrombotic activity in BALB/c mouse model of carrageenan-induced thrombus formation assessed as reduced serum P-selectin level at 20 mg/kg, iv measured after 14 days by ELISA; format: functional, organism-based; conditions: time 14.0 day
Lung [5] = experiment: Antithrombotic activity in BALB/c mouse model of carrageenan-induced thrombus formation assessed as reduced thrombus formation in lung at 20 mg/kg, iv measured after 14 days by H and E staining based assay; format: functional, organism-based; conditions: time 14.0 day
Platelet [6] = experiment: Inhibition of ADP-induced Akt activation in C57BL/6J mouse platelets assessed as reduction in phosphorylation Akt level at Ser473 at 20 mg/kg, po measured after 2 weeks by western blot analysis; format: organism-based
Mus musculus [7] = experiment: Antiplatelet activity against ADP-induced C57BL/6J mouse platelet aggregation assessed as reduction in P-selectin surface levels at 20 mg/kg, po measured after 2 weeks by flow cytometry analysis; format: functional, organism-based
Platelet [8] = experiment: Inhibition of ADP-induced Akt activation in C57BL/6J mouse platelet assessed as reduction of AKT phosphorylation at Ser473 by western blot analysis; format: cell-based
Mus musculus [9] = experiment: Antithrombotic activity in BALB/c mouse model of carrageenan-induced thrombus formation assessed as inhibition of thrombosis rate in tail at 20 mg/kg, iv measured after 14 days; format: functional, organism-based; conditions: time 14.0 day
Platelet [10] = experiment: Antiplatelet activity against ADP-induced C57BL/6J mouse platelet aggregation assessed as reduction in integrin alphaIIbbeta3 surface levels by measuring increase median fluorescence intensities at 10 uM incubated for 10 min by flow cytometry analysis; format: functional, cell-based
Platelet [11] = experiment: Antiplatelet activity against ADP-induced C57BL/6J mouse platelet aggregation assessed as reduction in P-selectin surface levels by measuring increase median fluorescence intensities at 10 uM incubated for 10 min by flow cytometry analysis; format: functional, cell-based
[12] = Cytotoxicity against human HUVEC cells assessed as cell vaibility at 100 uM by MTS assay; format: toxicity, cell-based; conditions: read-out: Activity
Platelet [13] = experiment: Antiplatelet activity against ADP-induced C57BL/6J mouse platelet aggregation assessed as reduction on platelet aggregation at 2.5 to 10 uM preincubated for 10 mins followed by ADP addition; format: functional, cell-based; conditions: dose 2.5-10 µM, DDE = dose-dependent effect
Mus musculus [14] = experiment: Antiplatelet activity against ADP-induced C57BL/6J mouse platelet aggregation assessed as inhibition of platelet aggregation at 100 mg/kg, po measured after 2 weeks; format: functional, organism-based
Mus musculus [15] = experiment: Antiplatelet activity against ADP-induced C57BL/6J mouse platelet aggregation assessed as reduction in integrin alphaIIbbeta3 surface level at 100 mg/kg, po measured after 2 weeks by flow cytometry analysis; format: functional, organism-based
Mus musculus [16] = experiment: Antiplatelet activity against ADP-induced C57BL/6J mouse platelet aggregation assessed as reduction in P-selectin surface levels at 100 mg/kg, po measured after 2 weeks by flow cytometry analysis; format: functional, organism-based
Platelet [17] = experiment: Inhibition of ADP-induced Akt activation in C57BL/6J mouse platelets assessed as reduction in phosphorylation Akt level at Ser473 at 100 mg/kg, po measured after 2 weeks by western blot analysis; format: organism-based
Mus musculus [18] = experiment: Antithrombotic activity in BALB/c mouse model of carrageenan-induced thrombus formation assessed as inhibition of thrombosis rate in tail at 100 mg/kg, iv measured after 14 days; format: functional, organism-based; conditions: time 14.0 day
Lung [19] = experiment: Antithrombotic activity in BALB/c mouse model of carrageenan-induced thrombus formation assessed as reduced thrombus formation in lung at 100 mg/kg, iv measured after 14 days by H and E staining based assay; format: functional, organism-based; conditions: time 14.0 day
Mus musculus [20] = experiment: Antithrombotic activity in BALB/c mouse model of carrageenan-induced thrombus formation assessed as reduced serum P-selectin level at 100 mg/kg, iv measured after 14 days by ELISA; format: functional, organism-based; conditions: time 14.0 day
[21] = Metabolic stability in human liver microsomes assessed as microsomal intrinsic clearance at 1 uM incubated upto 60 min in presence of NADPH by LC-MS/MS analysis; format: ADME, Microsome; conditions: read-out: CLH
[22] = Antiplatelet activity against ADP-induced C57BL/6J mouse platelet aggregation assessed as inhibition of platelet aggregation at 10 uM preincubated for 10 mins followed by ADP addition relative to control; format: functional; set-up: scale not given: the % may be the effect or the level left
[23] = Metabolic stability in human liver microsomes assessed as half life at 1 uM incubated upto 60 min in presence of NADPH by LC-MS/MS analysis; format: ADME, Microsome
[24] = Metabolic stability in CD-1 mouse liver microsomes assessed as microsomal intrinsic clearance at 1 uM incubated upto 60 min in presence of NADPH by LC-MS/MS analysis; format: ADME, Microsome; conditions: read-out: CLH
[25] = Metabolic stability in Sprague-Dawley rat liver microsomes assessed as compound remaining at 1 uM measured after 60 mins in presence of NADPH by LC-MS/MS analysis; format: ADME, Microsome; conditions: read-out: Stability
[26] = Metabolic stability in Sprague-Dawley rat liver microsomes assessed as liver intrinsic clearance at 1 uM incubated upto 60 min in presence of NADPH by LC-MS/MS analysis; format: ADME, Microsome; conditions: 1 h
[27] = Metabolic stability in human liver microsomes assessed as compound remaining at 1 uM measured after 60 mins in presence of NADPH by LC-MS/MS analysis; format: ADME, Microsome; conditions: read-out: Stability
[28] = Metabolic stability in human liver microsomes assessed as liver intrinsic clearance at 1 uM incubated upto 60 min in presence of NADPH by LC-MS/MS analysis; format: ADME, Microsome; conditions: 1 h
[29] = Acute toxicity in Kunming mouse assessed as effect on blood urea nitrogen at 250 to 1000 mg/kg, po measured after 14 days; format: organism-based; conditions: in vivo, 336 h, dose 250-1000 mg/kg, time 14 day
[30] = Metabolic stability in CD-1 mouse liver microsomes assessed as liver intrinsic clearance at 1 uM incubated upto 60 min in presence of NADPH by LC-MS/MS analysis; format: ADME, Microsome; conditions: 1 h
[31] = Acute toxicity in po dosed Kunming mouse assessed as lethal dose measured after 14 days; format: organism-based; conditions: in vivo, time 14 day
[32] = Metabolic stability in CD-1 mouse liver microsomes assessed as half life at 1 uM incubated upto 60 min in presence of NADPH by LC-MS/MS analysis; format: ADME, Microsome
[33] = Binding affinity to sensorchip-immobilized PI3K (unknown origin) by surface plasmon resonance analysis; set-up: species or system Homo sapiens
Platelet [34] = experiment: Inhibition of ADP-induced Akt activation in C57BL/6J mouse platelet assessed as reduction of AKT phosphorylation at Ser473 at 0.5 to 20 uM by western blot analysis; format: cell-based; conditions: dose 0.5-20 µM, DDE = dose-dependent effect
[35] = Metabolic stability in Sprague-Dawley rat liver microsomes assessed as microsomal intrinsic clearance at 1 uM incubated upto 60 min in presence of NADPH by LC-MS/MS analysis; format: ADME, Microsome; conditions: read-out: CLH
Platelet [36] = experiment: Antiplatelet activity against ADP-induced C57BL/6J mouse platelet aggregation assessed as increase in VASP phosphorylation level at 0.5 to 20 uM by western blotting analysis; format: functional, cell-based; conditions: dose 0.5-20 µM
[37] = Acute toxicity in Kunming mouse assessed as effect on glutamic pyruvic transaminase at 250 to 1000 mg/kg, po measured after 14 days; format: organism-based; conditions: in vivo, 336 h, dose 250-1000 mg/kg, time 14 day
[38] = Acute toxicity in Kunming mouse assessed as effect on glutamic oxalacetic transaminase at 250 to 1000 mg/kg, po measured after 14 days; format: organism-based; conditions: in vivo, 336 h, dose 250-1000 mg/kg, time 14 day
[39] = Metabolic stability in Sprague-Dawley rat liver microsomes assessed as half life at 1 uM incubated upto 60 min in presence of NADPH by LC-MS/MS analysis; format: ADME, Microsome
[40] = Acute toxicity in Kunming mouse assessed as effect on creatine at 250 to 1000 mg/kg, po measured after 14 days; format: organism-based; conditions: in vivo, 336 h, dose 250-1000 mg/kg, time 14 day
Mus musculus [41] = experiment: Antithrombotic activity in BALB/c mouse model of carrageenan-induced thrombus formation assessed as reduced thrombus area in tail at 100 mg/kg, iv measured after 14 days by H and E staining based assay; format: functional, organism-based; conditions: time 14.0 day
[42] = Metabolic stability in CD-1 mouse liver microsomes assessed as compound remaining at 1 uM measured after 60 mins in presence of NADPH by LC-MS/MS analysis; format: ADME, Microsome; conditions: read-out: Stability

## CC(=O)Oc1ccccc1C(=O)O [ASPIRIN]
Mus musculus [1]
  Activity: Active
[2]
  %max: 26.4%
Mus musculus [3]
  Activity: Active
Mus musculus [4]
  Activity: Active
Lung [5]
  Activity: Active
Platelet [6]
  inhibition: Active
Mus musculus [7]
  Activity: Active
Platelet [8]
  inhibition: Active
Mus musculus [9]
  Activity: Active

## COc1cc2c(cc1OC)-c1cc3ccc(OC)c(OCC4CC4)c3c[n+]1CC2.[Br-]
[2]
  %max: 30.4%
Platelet [10]
  Activity: Active
Platelet [11]
  Activity: Active
[12]
  viability at 100 µM: 90%
Platelet [13]
  Activity: Dde
Platelet [8]
  inhibition: Active

## COc1cc2c(cc1OC)-c1cc3ccc(OC)c(NCc4ccc(Cl)cc4)c3c[n+]1CC2.[Cl-]
[2]
  %max: 31.6%
Platelet [10]
  Activity: Active
Platelet [11]
  Activity: Active
Platelet [13]
  Activity: Dde
Platelet [8]
  inhibition: Active

## COc1cc2c(cc1OC)-c1cc3ccc(OC)c(OCc4ccccc4C#N)c3c[n+]1CC2.[Br-]
[2]
  %max: 30.5%
Platelet [10]
  Activity: Active
Platelet [11]
  Activity: Active
[12]
  viability at 100 µM: < 60%
Platelet [13]
  Activity: Dde
Platelet [8]
  inhibition: Active

## COc1ccc2cc3[n+](cc2c1OC)CCc1cc2c(cc1-3)OCO2 [BERBERINE]
Mus musculus [14]
  Activity: Active
Mus musculus [15]
  Activity: Active
[2]
  %max: 27.5%
Mus musculus [16]
  Activity: Active
Platelet [17]
  inhibition: Active
Mus musculus [18]
  Activity: Active
Lung [19]
  Activity: Active
Mus musculus [20]
  Activity: Active
Platelet [8]
  inhibition: Active

## CCCOc1c(OC)ccc2cc3[n+](cc12)CCc1cc(OC)c(OC)cc1-3.[Br-]
Mus musculus [14]
  Activity: Active
[21]
  microsomal CLint at 1 µM: < 9.6 µL/min/mg
[22]
  Activity: 37.8%
Mus musculus [15]
  Activity: Active
[23]
  half-life at 1 µM: > 2.42 h
[2]
  %max: 26.9%
[24]
  microsomal CLint at 1 µM: 31 µL/min/mg
[25]
  remaining at 1 h, 1 µM: 79%
Mus musculus [16]
  Activity: Active
Platelet [17]
  inhibition: Active
[26]
  CLH: < 17.3 mL/min/kg
Mus musculus [18]
  inhibition: Active
Platelet [10]
  Activity: Active
[27]
  remaining at 1 h, 1 µM: 117%
[28]
  CLH: < 8.6 mL/min/kg
Platelet [11]
  Activity: Active
[29]
  Activity: Non-Toxic
Lung [19]
  Activity: Active
[30]
  CLH: 123 mL/min/kg
[31]
  LD50 at 336 h: 1000 mg/kg
[32]
  half-life at 1 µM: 0.745 h
[12]
  viability at 100 µM: 90%
[33]
  Kd: 25.5 µM
Platelet [34]
  inhibition: Dde
[35]
  microsomal CLint at 1 µM: < 9.6 µL/min/mg
Platelet [36]
  Activity: Active
[37]
  Activity: Non-Toxic
[38]
  Activity: Non-Toxic
Mus musculus [20]
  Activity: Active
Platelet [13]
  Activity: Dde
[39]
  half-life at 1 µM: > 2.42 h
[40]
  Activity: Non-Toxic
Mus musculus [41]
  inhibition: Active
Platelet [8]
  inhibition: Active
[42]
  remaining at 1 h, 1 µM: 39%

## COc1cccc(COc2c(OC)ccc3cc4[n+](cc23)CCc2cc(OC)c(OC)cc2-4)c1.[Br-]
[2]
  %max: 34.8%
[12]
  viability at 100 µM: 90%
